Test results published in patent publication US7662810B2, “2-arylmethylazetidine carbapenem derivatives and preparation thereof” (Korea Research Institute of Chemical Technology, priority 2004, dated 2010).
Converted amounts (≈) assume the structure as drawn.

Legend:
[1] = target: T1, Dihydropeptidase-1 (DHP-1) (Sus scrofa, UniProt P22412)
T1 sequence (P22412 17-384): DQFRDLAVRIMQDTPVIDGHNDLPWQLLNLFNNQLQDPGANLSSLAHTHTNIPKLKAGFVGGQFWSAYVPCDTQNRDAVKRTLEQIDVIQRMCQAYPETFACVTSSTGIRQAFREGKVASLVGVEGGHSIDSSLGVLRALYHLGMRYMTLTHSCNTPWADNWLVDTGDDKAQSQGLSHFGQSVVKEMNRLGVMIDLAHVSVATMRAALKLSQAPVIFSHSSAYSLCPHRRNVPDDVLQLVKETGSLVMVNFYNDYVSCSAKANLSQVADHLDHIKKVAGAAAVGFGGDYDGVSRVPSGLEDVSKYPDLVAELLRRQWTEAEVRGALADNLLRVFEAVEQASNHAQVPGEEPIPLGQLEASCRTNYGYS
Protocol: The rate of degradation of the inventive compounds by the action of DHP-1 enzyme extracted from hog kidney was determined as follow.
0.2 unit of the enzyme was allowed to react with the above solution at 30° C., and the absorbance at 299 nm of the remaining medicament was measured to determine the degradation rate. The absorbance was measured at 0, 0.5, 1, 2 and 4 hour points, and T1/2, the time when the concentration of the medicament become the half, was obtained by regression analysis.

[2] = test system: Enterobacter cloacae 1321 E; assay: Measurement of Minimum Inhibitory Concentration (MIC); format: cell-based
Protocol: (§1) The antibacterial activities of the compounds of the present invention prepared in the above Examples against Gram-positive and Gram-negative bacteria, MRSA and QRS were tested as follows.
(§2) Respective bacterial strains were inoculated into 3 ml of Fleisch extract broth (beef extract 1%, peptone 1%, NaCl 0.3%, Na2HPO4.12H2O 0.2%, pH 7.4-7.5. 10% horse serum was supplemented for Streptococcus pyogenes and S. facium) and cultured on a shaking incubator at 37° C. for 18 hours. About 10^4 CFU/spot of the cultured bacterial strains were inoculated onto Müller-Hinton agar plates containing serial double dilutions (final concentration of 0.002 to 100 μg/ml) of a test compound employing an automatic inoculator (Dynatech, USA), and incubated at 37° C. for 18 hours. When the incubation was completed, the minimum inhibitory concentration was determined. Meropenem (Yuhan corporation, Korea) and vancomycin (Cj Inco., Korea) were used as standard antibiotics, respectively.

[3] = test system: Enterobacter cloacae P 99; assay: as above; format: cell-based
Protocol: as §1, §2

Escherichia coli 078 = assay: as above; format: cell-based
Protocol: as §1, §2

Escherichia coli 1507 E = assay: as above; format: cell-based
Protocol: as §1, §2

Escherichia coli DC 0 = assay: as above; format: cell-based
Protocol: as §1, §2

Escherichia coli DC 2 = assay: as above; format: cell-based
Protocol: as §1, §2

Escherichia coli TEM = assay: as above; format: cell-based
Protocol: as §1, §2

[4] = test system: Klebsiella aerogenes 1522 E; assay: as above; format: cell-based
Protocol: as §1, §2

[5] = test system: Klebsiella oxytoca 1082 E; assay: as above; format: cell-based
Protocol: as §1, §2

[6] = test system: Salmonella typhimurium 179; assay: as above; format: cell-based
Protocol: as §1, §2

[7] = test system: Staphylococcus aureus 285; assay: as above; format: cell-based
Protocol: as §1, §2

[8] = test system: Staphylococcus aureus 503; assay: as above; format: cell-based
Protocol: as §1, §2

[9] = test system: Staphylococcus faecium MD 8b; assay: as above; format: cell-based
Protocol: as §1, §2

[10] = test system: Staphylococcus pyogenes 308A; assay: as above; format: cell-based
Protocol: as §1, §2

[11] = test system: Staphylococcus pyogenes 77A; assay: as above; format: cell-based
Protocol: as §1, §2

[12] = test system: Staphylococcus aureus 121E; assay: Measurement of Minimum Inhibitory Concentration (MIC), MRSA; format: cell-based
Protocol: as §1, §2

[13] = test system: Staphylococcus aureus 208E; assay: as above; format: cell-based
Protocol: as §1, §2

[14] = test system: Staphylococcus aureus 256E; assay: as above; format: cell-based
Protocol: as §1, §2

[15] = test system: Staphylococcus aureus 690E; assay: as above; format: cell-based
Protocol: as §1, §2

[16] = test system: Staphylococcus aureus 692E; assay: as above; format: cell-based
Protocol: as §1, §2

[17] = test system: Staphylococcus aureus 693E; assay: as above; format: cell-based
Protocol: as §1, §2

[18] = test system: Staphylococcus aureus 694E; assay: as above; format: cell-based
Protocol: as §1, §2

[19] = test system: Staphylococcus aureus 695E; assay: as above; format: cell-based
Protocol: as §1, §2

[20] = test system: Staphylococcus aureus 697E; assay: as above; format: cell-based
Protocol: as §1, §2

[21] = test system: Staphylococcus aureus 88E; assay: as above; format: cell-based
Protocol: as §1, §2

[22] = test system: Staphylococcus aureus 179; assay: Measurement of Minimum Inhibitory Concentration (MIC), QRS; format: cell-based
Protocol: as §1, §2

[23] = test system: Staphylococcus aureus 241; assay: as above; format: cell-based
Protocol: as §1, §2

[24] = test system: Staphylococcus aureus 293; assay: as above; format: cell-based
Protocol: as §1, §2

[25] = test system: Staphylococcus epidermidis 178; assay: as above; format: cell-based
Protocol: as §1, §2

[26] = test system: Staphylococcus epidermidis 291; assay: as above; format: cell-based
Protocol: as §1, §2

COc1cccc(CN2CC(SC3=C(C(=O)[O-])N4C(=O)[C@H]([C@@H](C)O)[C@H]4[C@H]3C)C2)c1.[K+] [Exam. 15, Potassium(1R,5S,6S)-2-[1-(3-methoxybenzyl)-azetidine-3-yl-thio]-6-[(1R)-1-hydroxylethyl]-1-methylcarbapen-2-em-3-carboxylate]
Relative T1/2 [1]: 1.54
T1/2 (time when the concentration of the medicament become the half) [1]: 28.16

COc1ccccc1CN1CC(SC2=C(C(=O)[O-])N3C(=O)[C@H]([C@@H](C)O)[C@H]3[C@H]2C)C1.[K+] [Exam. 16, Potassium(1R,5S,6S)-2-[1-(2-methoxybenzyl)-azetidine-3-yl-thio]-6-[(1R)-1-hydroxylethyl]-1-methylcarbapen-2-em-3-carboxylate]
MIC [2]: 0.098 µg/mL
MIC [3]: 0.391 µg/mL
MIC (Escherichia coli 078): 0.098 µg/mL
MIC (Escherichia coli 1507 E): 0.195 µg/mL
MIC (Escherichia coli DC 0): 0.781 µg/mL
MIC (Escherichia coli DC 2): 0.049 µg/mL
MIC (Escherichia coli TEM; Escherichia coli TEM): 0.195 µg/mL
MIC [4]: 0.391 µg/mL
MIC [5]: 0.098 µg/mL
MIC ([6]; Salmonella typhimurium 179): 0.098 µg/mL
MIC [7]: 0.025 µg/mL
MIC [8]: 0.013 µg/mL
MIC ([9]; Staphylococcus faecium MD 8b): 1.563 µg/mL
MIC ([10]; Staphylococcus pyogenes 308A): 0.002 µg/mL
MIC ([11]; Staphylococcus pyogenes 77A): 0.002 µg/mL
MIC ([12]; Staphylococcus aureus 121E): 0.025 µg/mL
MIC ([13]; Staphylococcus aureus 208E): 0.025 µg/mL
MIC ([14]; Staphylococcus aureus 256E): 0.025 µg/mL
MIC ([15]; Staphylococcus aureus 690E): 0.195 µg/mL
MIC ([16]; Staphylococcus aureus 692E): 0.049 µg/mL
MIC ([17]; Staphylococcus aureus 693E): 1.563 µg/mL
MIC ([18]; Staphylococcus aureus 694E): 0.049 µg/mL
MIC ([19]; Staphylococcus aureus 695E): 0.049 µg/mL
MIC ([20]; Staphylococcus aureus 697E): 0.025 µg/mL
MIC ([21]; Staphylococcus aureus 88E): 0.025 µg/mL
MIC ([22]; QRS, Staphylococcus aureus 179): 0.049 µg/mL
MIC ([23]; QRS, Staphylococcus aureus 241): 0.025 µg/mL
MIC ([24]; QRS, Staphylococcus aureus 293): 0.098 µg/mL
MIC ([25]; QRS, Staphylococcus epidermidis 178): 0.195 µg/mL
MIC ([26]; QRS, Staphylococcus epidermidis 291): 0.391 µg/mL
T1/2 (time when the concentration of the medicament become the half) [1]: 200.91
stability against hydrolysis by DHP-1 (in words) [1]: very stable

C[C@@H](O)[C@H]1C(=O)N2C(C(=O)[O-])=C(SC3CN(Cc4ccc(Cl)cc4)C3)[C@H](C)[C@H]12.[K+] [Exam. 18, Potassium(1R,5S,6S)-2-[1-(4-chlorobenzyl)-azetidine-3-yl-thio]-6-[(1R)-1-hydroxylethyl]-1-methylcarbapen-2-em-3-carboxylate]
Relative T1/2 [1]: 0.84
T1/2 (time when the concentration of the medicament become the half) [1]: 15.36

C[C@@H](O)[C@H]1C(=O)N2C(C(=O)[O-])=C(SC3CN(Cc4cccc(C(F)(F)F)c4)C3)[C@H](C)[C@H]12.[K+] [Exam. 20, Potassium(1R,5S,6S)-2-[1-(3-trifluoromethylbenzyl)-azetidine-3-yl-thio]-6-[(1R)-1-hydroxylethyl]-1-methylcarbapen-2-em-3-carboxylate]
Relative T1/2 [1]: 0.88
T1/2 (time when the concentration of the medicament become the half) [1]: 16.03

C[C@H](c1ccccc1)N1CC(SC2=C(C(=O)[O-])N3C(=O)[C@H]([C@@H](C)O)[C@H]3[C@H]2C)C1.[K+] [Exam. 21, Potassium(1R,5S,6S)-2-{1-[(1R)-1-phenylethyl]-azetidine-3-yl-thio}-6-[(1R)-1-hydroxylethyl]-1-methylcarbapen-2-em-3-carboxylate]
Relative T1/2 [1]: 1.88
T1/2 (time when the concentration of the medicament become the half) [1]: 38.43

Cc1ccc(CN2CC(SC3=C(C(=O)[O-])N4C(=O)[C@H]([C@@H](C)O)[C@H]4[C@H]3C)C2)cc1.[K+] [Exam. 23, Potassium(1R,5S,6S)-2-[1-(4-methylbenzyl)-azetidine-3-yl-thio]-6-[(1R)-1-hydroxylethyl]-1-methylcarbapen-2-em-3-carboxylate]
Relative T1/2 [1]: 1.38
T1/2 (time when the concentration of the medicament become the half) [1]: 25.24

CC(c1ccc(Br)cc1)N1CC(SC2=C(C(=O)[O-])N3C(=O)[C@H]([C@@H](C)O)[C@H]3[C@H]2C)C1.[K+] (stereo partly drawn) [Exam. 24, Potassium(1R,5S,6S)-2-{1-[1-(4-bromophenyl)ethyl]-azetidine-3-yl-thio}-6-[(1R)-1-hydroxylethyl]-1-methylcarbapen-2-em-3-carboxylate]
Relative T1/2 [1]: 1.08
T1/2 (time when the concentration of the medicament become the half) [1]: 19.71

CN[C@H](CC(C)C)C(=O)N[C@H]1C(=O)N[C@@H](CC(N)=O)C(=O)N[C@H]2C(=O)N[C@H]3C(=O)N[C@H](C(=O)N[C@H](C(=O)O)c4cc(O)cc(O)c4-c4cc3ccc4O)[C@H](O)c3ccc(c(Cl)c3)Oc3cc2cc(c3O[C@@H]2O[C@H](CO)[C@@H](O)[C@H](O)[C@H]2O[C@H]2C[C@](C)(N)[C@H](O)[C@H](C)O2)Oc2ccc(cc2Cl)[C@H]1O [Vancomycin, vancomycin, reference compound]
MIC [2]: 100 µg/mL (≈ 69 µM)
MIC [3]: 100 µg/mL (≈ 69 µM)
MIC (Escherichia coli 078): 100 µg/mL (≈ 69 µM)
MIC (Escherichia coli 1507 E): 100 µg/mL (≈ 69 µM)
MIC (Escherichia coli DC 0): 100 µg/mL (≈ 69 µM)
MIC (Escherichia coli DC 2): 50 µg/mL (≈ 34.5 µM)
MIC (Escherichia coli TEM; Escherichia coli): 100 µg/mL (≈ 69 µM)
MIC [4]: 100 µg/mL (≈ 69 µM)
MIC [5]: 100 µg/mL (≈ 69 µM)
MIC ([6]; Salmonella enterica, TYPHIMURIUM): 100 µg/mL (≈ 69 µM)
MIC [7]: 0.391 µg/mL (≈ 0.27 µM)
MIC [8]: 0.391 µg/mL (≈ 0.27 µM)
MIC ([9]; Staphylococcus, MD8B): 0.391 µg/mL (≈ 0.27 µM)
MIC ([10]; Staphylococcus aureus, 308A): 0.781 µg/mL (≈ 0.539 µM)
MIC ([11]; Staphylococcus aureus, 77A): 0.391 µg/mL (≈ 0.27 µM)
MIC ([12]; Staphylococcus aureus): 0.781 µg/mL (≈ 0.539 µM)
MIC ([13]; Staphylococcus aureus): 0.781 µg/mL (≈ 0.539 µM)
MIC ([14]; Staphylococcus aureus): 0.781 µg/mL (≈ 0.539 µM)
MIC ([15]; Staphylococcus aureus): 0.391 µg/mL (≈ 0.27 µM)
MIC ([16]; Staphylococcus aureus): 0.781 µg/mL (≈ 0.539 µM)
MIC ([17]; Staphylococcus aureus): 1.56 µg/mL (≈ 1.08 µM)
MIC ([18]; Staphylococcus aureus): 1.56 µg/mL (≈ 1.08 µM)
MIC ([19]; Staphylococcus aureus): 1.56 µg/mL (≈ 1.08 µM)
MIC ([20]; Staphylococcus aureus): 0.781 µg/mL (≈ 0.539 µM)
MIC ([21]; Staphylococcus aureus): 0.781 µg/mL (≈ 0.539 µM)
MIC ([22]; Staphylococcus aureus, 179): 0.781 µg/mL (≈ 0.539 µM)
MIC ([23]; Staphylococcus aureus, 241): 0.781 µg/mL (≈ 0.539 µM)
MIC ([24]; Staphylococcus aureus, 293): 0.781 µg/mL (≈ 0.539 µM)
MIC ([25]; Staphylococcus epidermidis, 178): 1.56 µg/mL (≈ 1.08 µM)
MIC ([26]; Staphylococcus epidermidis, 291): 1.56 µg/mL (≈ 1.08 µM)
